Literature values in patent publication US7550593B2, “Process for the preparation of finasteride Form I” (Cipla Limited, priority 2003, dated 2009).

Test system: serum DHT concentration
Details: within 24 hours of oral dosing with a 1 mg tablet

Structure (SMILES): CC(C)(C)NC(=O)[C@H]1CC[C@H]2[C@@H]3CC[C@H]4NC(=O)C=C[C@]4(C)[C@H]3CC[C@]12C [Finasteride, 17β-(N-t-butylcarbamoyl)-4-aza-5-alpha-androst-1-ene-3-one]
- suppression of serum DHT concentration: 65%
